For this experiment, the system named is PC2. Kind of experiment: Confocal localization of PC2 with ER, Golgi and PM markers. Format: cell-based. Conditions: treated vs control cells, Pearson's correlation with markers. From the text: FIG. 17A and FIG. 17B show images of confocal microscopy localization studies of PC2 and localization markers in control and treated cells (FIG. 17A) and graphs showing Pearson's correlation coefficient for PC2 and localization markers in control and VX-809 treated cells (FIG. 17B).
The localization of PC2 and CFTR in control cells was compared to the localization of PC2 and CFTR localization in VX-809 treated cells.

As to `Cc1ccc(NC(=O)C2(c3ccc4c(c3)OC(F)(F)O4)CC2)nc1-c1cccc(C(=O)O)c1` [VX-809, lumacaftor], the PC2 localization result was “statistically significant move of PC2 from the ER to Golgi”.

For the origin of these results see patent US20220133702A1, “CYSTIC FIBROSIS TRANSMEMBRANE CONDUCTANCE REGULATOR MODULATORS FOR TREATING AUTOSOMAL DOMINANT POLYCYSTIC KIDNEY DISEASE” (The Johns Hopkins University, priority 2020, published 2022).
